Series [1] has as its system colon cancer cells. Set-up: method as in PMID 33088219. The conditions noted are these: treatment with the FABP4 inhibitor; cited from earlier work.
Series [2] concerns the target T1, FABP4 (Homo sapiens, UniProt P15090).
T1 construct: purchased Cayman Chemical 10010231
The series is described as follows: FABP4 Inhibitor/Ligand Screening Assay Kit: displacement of a fluorescent detection reagent. The format is binding. The conditions noted are these: for IC50: displacement of detection reagent from FABP4, compounds diluted in PBS pH 7.4, fluorescence em 470 nm, ex 370 nm.
Method: FABP4 inhibitory activity was assessed by measuring the decrease in fluorescent signal of a detection reagent (DR) when displaced by a strong FABP4 ligand. […] Therefore, any effective ligand of the protein, which binds to the same binding pocket and can displace the DR, determines a reduction in the fluorescence read-out. The new molecular series was screened in a two-step procedure. Firstly, a single concentration of 5 µM was used to gain an estimation of the overall inhibitory effect of all the molecules.
To analyze the inhibitory activity of FABP4 ligands, a displacement assay was utilized as described by the Cayman’s instruction, FABP4 Inhibitor/Ligand Screening Assay Kit, Item 10,010,231 (see Supplementary Materials for additional details). The samples of compounds for activity determination were prepared as a stock solution (1 mM) in DMSO. On the day of activity assay, the compounds were all diluted in phosphate buffer solution (PBS, pH 7.4) to different concentrations (100, 50, 10, 5, 2, 1, and 0 µM). Appropriate concentrations of DMSO in PBS were used as control. The detection reagent (FABP Assay Detection Reagent, Item 10010376) was used as provided by the Cayman’s kit. The diluted Detection Reagent probe was mixed with FABP4 protein present in the kit and incubated for 10 min at room temperature. Compounds were then added and equilibrated for another 10 min. Lastly, the fluorescence signal was recorded at 470 nm (i.e., emission, with the excitation fixed at 370 nm) with a CytoFluor® Series 4000 Fluorescence Multi-Well Plate Reader.

T1 sequence (P15090 whole entry): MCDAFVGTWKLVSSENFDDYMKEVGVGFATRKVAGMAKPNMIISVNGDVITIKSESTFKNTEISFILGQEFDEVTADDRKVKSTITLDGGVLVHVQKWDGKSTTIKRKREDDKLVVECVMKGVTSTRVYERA

Take `CCc1c(-c2ccccc2)c(-c2ccccc2)nn1-c1ccccc1-c1cccc(OCC(=O)O)c1` [BMS309403]: the “migration and invasion of colon cancer cells” value in series [1] is “weakened”.
`Cn1nc(-c2ccccc2)cc(NC(N)=O)c1=O` [Compound 25a, (2-Methyl-3-oxo-6-phenyl-2,3-dihydro-pyridazin-4-yl)urea] returned a melting point greater than 300 °C. Moreover, the concentration for half-maximal inhibition (IC50) in series [2] came to 2.97 ± 0.26 µM. Also, the “FABP4 inhibitory activity, IC50 in words” value in series [2] (summary statement in conclusions) is reported as “low micromolar range”.
As for `CCn1nc(-c2ccccc2)cc(NC(N)=O)c1=O` [Compound 25c, (2-Ethyl-3-oxo-6-phenyl-2,3-dihydro-pyridazin-4-yl)urea], the melting point fell in the range of 270 to 271 °C. The IC50 in series [2] was greater than 50 µM.
`CCCn1nc(-c2ccccc2)cc(NC(N)=O)c1=O` [Compound 25e, (3-Oxo-6-phenyl-2-propyl-2,3-dihydro-pyridazin-4-yl)urea]: the melting point was 273 to 275 °C. This molecule also came in with an IC50 in series [2] greater than 50 µM.
`CSc1nnc(-c2ccccc2)cc1N` [Compound 27, 3-Methylsulfanyl-6-phenyl-pyridazin-4-ylamine] registered a melting point of 168 to 170 °C. Further, the IC50 in series [2] is greater than 50 µM.
For `CC(=O)N1CCN(C(=O)c2ccc(Nc3cc(-c4ccccc4)nn(C)c3=O)cc2)CC1` [Compound 35, 4-[4-(4-Acetyl-piperazine-1-carbonyl)-phenylamino]-2-methyl-6-phenylpyridazin-3(2H)-one], the melting point fell in the range of 213 to 215 °C. Also, in series [2], the IC50 was greater than 50 µM.
Taken in the same sequence, the figures for `Cc1cc(NC(N)=O)c(=O)n(-c2ccccc2)n1` [Compound 55, 1-(6-Methyl-3-oxo-2-phenyl-2,3-dihydropyridazin-4-yl)urea] were 288 to 290 °C and greater than 50 µM.

A word on the IC50: it is the concentration needed to halve the response being measured. One may read the melting point as the temperature of the solid-liquid transition.

Values taken from PMC9697826 (Pharmaceuticals, 2022).
